Experimental findings from patent US7902224B2, “Tetrahydro-naphthalene derivatives as glucocorticoid receptor modulators” (Glaxo Group Limited, priority 2004, dated 2011) are described below.

The target in one test is T1, glucocorticoid receptor (Homo sapiens, UniProt P04150).
T1 construct: purchased Pan Vera (Madison, Wis., USA)
T1 sequence (P04150 1-777): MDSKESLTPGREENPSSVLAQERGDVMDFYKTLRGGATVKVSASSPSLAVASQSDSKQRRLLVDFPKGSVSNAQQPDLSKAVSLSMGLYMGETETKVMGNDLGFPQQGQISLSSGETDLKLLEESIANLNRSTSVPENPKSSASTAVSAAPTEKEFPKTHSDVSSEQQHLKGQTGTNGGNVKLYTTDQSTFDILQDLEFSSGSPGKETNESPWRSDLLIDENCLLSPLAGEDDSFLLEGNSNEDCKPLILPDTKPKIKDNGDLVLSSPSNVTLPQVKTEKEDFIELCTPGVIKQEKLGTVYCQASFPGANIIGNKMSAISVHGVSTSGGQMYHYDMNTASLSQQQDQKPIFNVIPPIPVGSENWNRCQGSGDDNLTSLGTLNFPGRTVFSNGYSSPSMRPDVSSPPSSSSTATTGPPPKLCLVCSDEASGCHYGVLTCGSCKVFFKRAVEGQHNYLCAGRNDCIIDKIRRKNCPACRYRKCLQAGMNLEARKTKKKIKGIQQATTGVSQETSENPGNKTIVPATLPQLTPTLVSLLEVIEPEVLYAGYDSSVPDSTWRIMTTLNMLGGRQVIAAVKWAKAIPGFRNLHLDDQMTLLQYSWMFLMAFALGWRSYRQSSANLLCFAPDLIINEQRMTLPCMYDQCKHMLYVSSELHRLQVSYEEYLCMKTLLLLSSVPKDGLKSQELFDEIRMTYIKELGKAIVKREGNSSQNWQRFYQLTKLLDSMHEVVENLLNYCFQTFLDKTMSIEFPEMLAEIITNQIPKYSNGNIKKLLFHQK
Description: Glucocorticoid receptor binding assay (fluorescence polarisation competition). The note with it: displacement of fluorescent glucocorticoid, 22° C., 2 hours; read-out: pIC50 glucocorticoid receptor binding assay (converted). Here is the method: Glucocorticoid Receptor Binding Assay
The ability of compounds to bind to the glucocorticoid receptor was determined by assessing their ability to compete with fluorescent-labelled glucocortioid using a kit supplied by Pan Vera (Madison, Wis., USA) or using in house reagents. Compounds were solvated and diluted in DMSO, and transferred directly into assay plates. Fluorescent glucocorticoid and partially purified glucocorticoid receptor with a stabilisation peptide were added to the plates and incubated at 22° C. for 2 hours in the dark. Binding of the compound was assessed by analysing the displacement of fluorescent ligand by measuring the decrease in fluorescence polarisation signal from the mixture.

For the next test, the system named is NFkB activity. Description: Glucocorticoid mediated transrepression of NFkB activity (A549 ELAM promoter alkaline phosphatase reporter, TNFα stimulated). It counts as cell-based. The note with it: A549 cells, 3 ng/ml human recombinant TNFα, 16 hours; read-out: pIC50 NFkB assay (converted). The text has this:
Glucocorticoid mediated Transrepression of NFkB activity.
Human A549 lung epithelial cells were engineered to contain a secreted placental alkaline phosphatase gene under the control of the distal region of the NFkB dependent ELAM promoter as previously described in Ray, K. P., Farrow, S., Daly, M., Talabot, F. and Searle, N. “Induction of the E-selectin promoter by interleukin 1 and tumour necrosis factor alpha, and inhibition by glucocorticoids” Biochemical Journal. 1997 328 707-15.
Compounds were solvated and diluted in DMSO, and transferred directly into assay plates such that the final concentration of DMSO was 0.7%. Following the addition of cells (40K per well), plates were incubated for 1 hr prior to the addition of 3 ng/ml human recombinant TNFα. Following continued incubation for 16 hours, alkaline phosphatase activity was determined by measuring the change in optical density at 405 nm with time following the addition of 0.7 volumes of assay buffer (1 mg/ml p-nitrophenylphosphate dissolved in 1 M diethanolamine, 0.28M NaCl, 0.5 mM MgCl2).

Test [1] deals with MMTV driven gene expression. Description: Glucocorticoid mediated transactivation of MMTV driven gene expression (luciferase reporter). The format is cell-based, Human. The note with it: A549 or MG63 cells, 6 hr incubation. From the text:
Glucocorticoid Mediated Transactivation of MMTV Driven Gene Expression
Human A549 lung epithelial cells or human MG63 osteosarcoma were engineered to contain a renialla luciferase gene under the control of the distal region of the LTR from the mouse mammary tumour virus as previously described (Austin, R. H., Maschera, B., Walker, A., Fairbairn, L., Meldrum, E., Farrow, S. and Uings, I. J. Mometasone furoate is a less specific glucocorticoid than fluticasone propionate. European Respiratory Journal 2002 20 1386-1392).
Compounds were solvated and diluted in DMSO, and transferred directly into assay plates such that the final concentration of DMSO was 0.7%. Following the addition of cells (40K per well), plates were incubated for 6 hr. Luciferase activity was determined using the Firelight kit (Packard, Pangbourne, UK).
For orientation: In a reporter assay the amount or activity of a reporter protein is the signal.

As to `CC1(CC(O)(CNc2cccc3ncccc23)C(F)(F)F)CCCc2ccccc21` (single isomer, unassigned) [Example 1-D1E1, 1,1,1-Trifluoro-3-(1-methyl-1,2,3,4-tetrahydro-1-naphthalenyl)-2-[(5-guinolinylamino)methyl]-2-propanol], the results for the IC50 on glucocorticoid receptor and with NFkB activity were below 100 nM and below 31.6 nM, respectively. Also, the “efficacy in the MMTV transactivation assay compared to the NFkB assay” value (shortened to “efficacy … compared to the NFkB assay”) in test [1] is reported as “reduced efficacy”. Take `Cc1ccc2c(NCC(O)(CC3(C)CCCc4ccccc43)C(F)(F)F)cccc2n1` (single isomer, unassigned) [Example 2-D1, 1,1,1-Trifluoro-3-[(2-methyl-5-quinolinyl)amino]-2-[(1-methyl-1,2,3,4-tetrahydro-1-naphthalenyl)methyl]-2-propanol]: the IC50 was below 100 nM at glucocorticoid receptor and below 31.6 nM in the test with NFkB activity. Besides, the “efficacy … compared to the NFkB assay” value in test [1] is given as “reduced efficacy”. As for `Cc1ccc2c(NCC(O)(CC3(C)CCCc4ccccc43)C(F)(F)F)cccc2n1` (single isomer, unassigned) [Example 2-D1E1, 1,1,1-Trifluoro-3-[(2-methyl-5-quinolinyl)amino]-2-[(1-methyl-1,2,3,4-tetrahydro-1-naphthalenyl)methyl]-2-propanol], the “efficacy … compared to the NFkB assay” value in test [1] is “reduced efficacy”. Take `Cc1ccc2c(NCC(O)(CC3(C)CCCc4ccccc43)C(F)(F)F)cccc2n1` (single isomer, unassigned) [Example 2-D2, 1,1,1-Trifluoro-3-[(2-methyl-5-quinolinyl)amino]-2-[(1-methyl-1,2,3,4-tetrahydro-1-naphthalenyl)methyl]-2-propanol]: in test [1], the “efficacy … compared to the NFkB assay” value is reported as “reduced efficacy”. The same measure, in the same setting: for `Cc1ccc2c(NCC(O)(CC3(C)CCCc4ccccc43)C(F)(F)F)cccc2n1` (single isomer, unassigned) [Example 2-D2E1, 1,1,1-Trifluoro-3-[(2-methyl-5-quinolinyl)amino]-2-[(1-methyl-1,2,3,4-tetrahydro-1-naphthalenyl)methyl]-2-propanol] the value was “reduced efficacy”; for `Cc1ccc2c(NCC(O)(CC3(C)CCCc4ccccc43)C(F)(F)F)cccc2n1` (single isomer, unassigned) [Example 2-D2E2, 1,1,1-Trifluoro-3-[(2-methyl-5-quinolinyl)amino]-2-[(1-methyl-1,2,3,4-tetrahydro-1-naphthalenyl)methyl]-2-propanol], “reduced efficacy”. For the molecule `CC1(CC(O)(CNc2cccc3cnccc23)C(F)(F)F)CCCc2ccccc21` (single isomer, unassigned) [Example 3-D1E2, 1,1,1-Trifluoro-3-(5-isoguinolinylamino)-2-[(1-methyl-1,2,3,4-tetrahydro-1-naphthalenyl)methyl]-2-propanol], the IC50 with NFkB activity is below 31.6 nM. In test [1], the “efficacy … compared to the NFkB assay” value is “reduced efficacy”. For the molecule `CC1(CC(O)(CNc2cccc3cnccc23)C(F)(F)F)CCCc2ccccc21` (single isomer, unassigned) [Example 3-D2E1, 1,1,1-Trifluoro-3-(5-isoguinolinylamino)-2-[(1-methyl-1,2,3,4-tetrahydro-1-naphthalenyl)methyl]-2-propanol], the IC50 on glucocorticoid receptor is below 100 nM. In addition, the “efficacy … compared to the NFkB assay” value in test [1] is reported as “reduced efficacy”. Consider `CCC1(CC(O)(CNc2cccc3cnccc23)C(F)(F)F)CCCc2ccccc21` (single isomer, unassigned) [Example 4-D1, 3-(1-Ethyl-1,2,3,4-tetrahydro-1-naphthalenyl)-1,1,1-trifluoro-2-[(5-isoquinolinylamino)methyl]-2-propanol], for which the IC50 on glucocorticoid receptor was below 100 nM. Besides, in test [1], the “efficacy … compared to the NFkB assay” value is “reduced efficacy”. Regarding `CCC1(CC(O)(CNc2cccc3cnccc23)C(F)(F)F)CCCc2ccccc21` (single isomer, unassigned) [Example 4-D1E2, 3-(1-Ethyl-1,2,3,4-tetrahydro-1-naphthalenyl)-1,1,1-trifluoro-2-[(5-isoquinolinylamino)methyl]-2-propanol], in the test with NFkB activity, the IC50 was below 31.6 nM. The “efficacy … compared to the NFkB assay” value in test [1] is “reduced efficacy”. For `CCC1(CC(O)(CNc2cccc3nc(C)ccc23)C(F)(F)F)CCCc2ccccc21` (single isomer, unassigned) [Example 5-D1, 3-(1-Ethyl-1,2,3,4-tetrahydro-1-naphthalenyl)-1,1,1-trifluoro-2-[[(2-methyl-5-quinolinyl)amino]methyl]-2-propanol], the IC50 at glucocorticoid receptor was below 100 nM; in the test with NFkB activity, below 31.6 nM. Moreover, the “efficacy … compared to the NFkB assay” value in test [1] is reported as “reduced efficacy”. As for `CCC1(CC(O)(CNc2cccc3nc(C)ccc23)C(F)(F)F)CCCc2ccccc21` (single isomer, unassigned) [Example 5-D1E1, 3-(1-Ethyl-1,2,3,4-tetrahydro-1-naphthalenyl)-1,1,1-trifluoro-2-[[(2-methyl-5-quinolinyl)amino]methyl]-2-propanol], the “efficacy … compared to the NFkB assay” value in test [1] was “reduced efficacy”. Consider `CCC1(CC(O)(CNc2cccc3nc(C)ccc23)C(F)(F)F)CCCc2ccccc21` (single isomer, unassigned) [Example 5-D2, 3-(1-Ethyl-1,2,3,4-tetrahydro-1-naphthalenyl)-1,1,1-trifluoro-2-[[(2-methyl-5-quinolinyl)amino]methyl]-2-propanol], for which the “efficacy … compared to the NFkB assay” value in test [1] is “reduced efficacy”. Still for that read-out and setting: in the case of `CCC1(CC(O)(CNc2cccc3nc(C)ccc23)C(F)(F)F)CCCc2ccccc21` (single isomer, unassigned) [Example 5-D2E1, 3-(1-Ethyl-1,2,3,4-tetrahydro-1-naphthalenyl)-1,1,1-trifluoro-2-[[(2-methyl-5-quinolinyl)amino]methyl]-2-propanol] it was “reduced efficacy”.

Take `CC1(CC(O)(CNc2cccc3ncccc23)C(F)(F)F)CCCc2ccccc21` (stereo not shown) [Example 1-D1, 1,1,1-Trifluoro-3-(1-methyl-1,2,3,4-tetrahydro-1-naphthalenyl)-2-[(5-guinolinylamino)methyl]-2-propanol]: the IC50 on glucocorticoid receptor is below 100 nM; with NFkB activity, below 31.6 nM. Moreover, the “efficacy … compared to the NFkB assay” value in test [1] is “reduced efficacy”. `CC1(CC(O)(CNc2cccc3cnccc23)C(F)(F)F)CCCc2ccccc21` (stereo not shown) [Example 3-D1, 1,1,1-Trifluoro-3-(5-isoguinolinylamino)-2-[(1-methyl-1,2,3,4-tetrahydro-1-naphthalenyl)methyl]-2-propanol]: the IC50 is below 100 nM on glucocorticoid receptor and below 31.6 nM in the test on NFkB activity. In addition, the “efficacy … compared to the NFkB assay” value in test [1] is on record as “reduced efficacy”.

As for `CC1(CC(O)(CNc2cccc3cnccc23)C(F)(F)F)CCCc2ccccc21` (stereo not shown) [Example 3-D2, 1,1,1-Trifluoro-3-(5-isoguinolinylamino)-2-[(1-methyl-1,2,3,4-tetrahydro-1-naphthalenyl)methyl]-2-propanol], the “efficacy … compared to the NFkB assay” value in test [1] was “reduced efficacy”.
